Holding throughout (assay type): physicochemical
Data set [1] in a line: Solubility of free fatty acids in histidine acetate buffer pH 5.5, visible particles by Seidenader. As to conditions: kinetic from dmso stock.
Procedure: In brief, lauric acid (“LA”. Sigma-Aldrich/Merck, Darmstadt, DE) and myristic acid (“MA”, Sigma-Aldrich/Merck, Darmstadt, DE) were suspended in PS20 HP (Croda, Edison, N.J., USA) and stirred (150 rpm) for 30 min at 60° C. until both FFAs were fully dissolved. Solutions were diluted 1:5 with pre-warmed (60° C.) water for injection (WFI) and immediately filtered through 0.22 μm PVDF Steriflip filters (Merck Millipore, Darmstadt, DE). The concentration of LA and MA in FFA stock solutions was verified by LC-MS as described by Honemann et al. (Honemann et al. 2019) LA/MA/PS20 stock solutions were spiked into 20 mM histidine acetate buffer pH 5.5 (1:500 dilution, n=3) and homogenized on a MaxQ™ 4000 Benchtop Orbital Shaker (Thermo Scientific™, Waltham, Mass., USA) for 1 hour at 25° C. Samples were stored at 5° C. and analyzed for visible particles after 0, 1, 7 and 28 days using a black/white panel according Ph. Eur. 2.9.20 (European Directorate for the Quality of Medicines) and a Seidenader V 90-T instrument (Seidenader Maschinenbau GmbH, Markt Schwaben, DE). […]
Free fatty acid (FFA) stock solutions of lauric acid (LA) and myristic acid (MA) were spiked into 20 mM histidine acetate buffer pH 5.5 (n=3). Samples were analyzed for the presence of visible particles after incubation at 2-8° C. for 0, 1 day, 7 days and 28 days using the (A) Seidenader and (B) E/P box.
Data set [2] can be described thus: FFA particle nucleation by DLS: interaction of bi- and trivalent cations with lauric acid. As to conditions: for FFA salt particle formation and growth (DLS): metal ion 0-30 μM, 70 hours, 5° C. As to the method:
DLS experiments were performed on DynaPro(R) plate reader (Wyatt, Santa Barbara, Calif.). The DLS plate reader is flushed with nitrogen 5 hours before commencing the measurements and cooled down to 5° C. during the entire duration of the measurements. 200 μL of sample solutions comprising of 20 μg lauric acid (LA) in 20 mM L-Histidine buffer at pH 6.0 supplemented with 6% v/v DMSO, and varying amounts of metal ions (Al^3+, Fe^3, Zn^2+, Mg^2+, Ca^2+, Ni^2+) were mixed in the cuvettes of black glass bottom 96 well plates (Greiner Bio-One GmbH, Frickenhausen, Germany). FFA nucleation and particle growth were measured over 40-70 hours using a 633 nm laser and a backscatter detection system at 158°. The hydrodynamic particle radius (rH) was determined by fitting a cumulant fit to the obtained auto-correlation function. […] The laser power was adjusted before each measurement sequence and kept constant during the entire measurement. The attenuation level was set to zero for all measurements in order to collect the maximum amount of scattered light. Aluminium (Al), Iron (Fe), Zink (Zn), Magnesium (Mg), Calcium (Ca) and Nickel (Ni) stock solutions were prepared at 4 mM in Milli-Q water pH 2.5 from their respective salts and stored at 2-8° C. until used. Diluted sample solutions (100×) were freshly prepared in Milli-Q water pH 2.5. The DLS assay buffer was added to the salt sample solutions to attain metal ion target concentrations of 0, 1, 3, 10 and 30 μM. Particles size (rH) and intensity were measured over a period of 70 h as described above.

The nature of data set [3]: Spiking study with free fatty acids and aluminum, visible particles by Seidenader (Table 4A). As to conditions: Seidenader results.
Procedure: A 100 ppm aluminum stock solution was prepared from aluminum chloride hexahydrate in 20 mM histidine acetate pH 5.5. The actual concentration of aluminum was determined by inductively-coupled plasma mass spectrometry (ICP-MS). This stock solution was then diluted to 10 ppm Al^3+ and sterile-filtered through a 0.22 μm porosity filter cartridge (Sterivex-GV, Millipore).
All vials were sealed with 20 mm teflonized injection stoppers (D777-1, Daikyo) and aluminum crimp caps and homogenized on a MaxQ™ 4000 Benchtop Orbital Shaker (Thermo Scientific™, Waltham, Mass., USA) for 1 hour at 25° C.
LAMA-10 only comprised polysorbate 20 and was used for the preparation of negative controls. All samples were prepared in triplicates.
Samples were stored at 5° C. and the formation of visible particles was assessed for up to 28 days using a black/white and a Seidenader V 90-T instrument (Seidenader Maschinenbau GmbH, Markt Schwaben, DE) as described above.
Samples were analyzed for the presence of visible particles after storage at 2-8° C. for 0, 1 day, 7 days and 28 days using the (A) Seidenader and (B) E/P box.
Data set [4] is described as follows: FFA particle nucleation by DLS: impact of aluminum concentration on particle kinetics. To be noted: 20 ppb Al; 5° C.; not captured in the 40 hours experiment. As to the method: DLS experiments were performed on DynaPro(R) plate reader (Wyatt, Santa Barbara, Calif.). The DLS plate reader is flushed with nitrogen 5 hours before commencing the measurements and cooled down to 5° C. during the entire duration of the measurements. 200 μL of sample solutions comprising of 20 μg lauric acid (LA) in 20 mM L-Histidine buffer at pH 6.0 supplemented with 6% v/v DMSO, and varying amounts of metal ions (Al^3+, Fe^3, Zn^2+, Mg^2+, Ca^2+, Ni^2+) were mixed in the cuvettes of black glass bottom 96 well plates (Greiner Bio-One GmbH, Frickenhausen, Germany). FFA nucleation and particle growth were measured over 40-70 hours using a 633 nm laser and a backscatter detection system at 158°. The hydrodynamic particle radius (rH) was determined by fitting a cumulant fit to the obtained auto-correlation function. […]
Al sample solutions (100×) in 20 mM Histidine buffer pH 6.0 were prepared from a sterile 50 ppm Al stock solution (20 mM Glycine pH 2.5) and were spiked into the DLS assay buffer at target concentrations of 0, 20, 40, 60 and 100 ppb Al. Particle nucleation and growth was measured over a period of 40 hours as described above.
Quantitative analysis was performed by analyzing the intensity of the scattered laser light of the FFA particles over time by fitting a sigmoidal Boltzmann function to the growth curves. […]

Data set [5] is described as follows: Spiking study with partially degraded polysorbate 20 and aluminum, visible particles by E/P box. As to conditions: 0.05 mM DTPA or 0.005% (w/v) EDTA; 250 ppb aluminum; partially degraded polysorbate below the solubility limit.
Procedure: Diluted aluminum solutions comprising in 20 mM histidine acetate pH 5.5 were prepared as described above and filled into 20 mL type I borosilicate glass vials (Schott, Mainz, DE). […] Vials were sealed with 20 mm teflonized injection stoppers (D777-1, Daikyo) and aluminum crimp caps and homogenized on a MaxQ™ 4000 Benchtop Orbital Shaker (Thermo Scientific™, Waltham, Mass., USA) for 1 hour at 25° C.
PS20-Std only comprised non-degraded polysorbate 20 and was used for the preparation of negative controls. All samples were prepared in triplicates.
Samples were stored at 5° C. and particle formation was assessed for up to 28 days by visual inspection using a black/white panel according Ph.
Samples were visually inspected (E/P box) for the presence of visible particles after incubation for 0, 1 day, 7 days and 28 days at 2-8° C.
Data set [6] in a line: Spiking study with different PS20 and PS80 grades, aluminum and DTPA, visible particles by E/P (Table 10). To be noted: 50 μM DTPA, 250 ppb aluminum, all grades of PS. As for the experimental part: (§1) Super refined (SR) PS20 and PS80, high purity (HP) PS20 and PS80, as well as pure oleic acid (POA) PS80 were enzymatically hydrolyzed by 10% using immobilized enzymes (Graf et al. 2020) (mucor miehei lipase (MML), Candida antarctica lipase (CAL) and Candida antarctica lipase B (CALB)). […] Diluted aluminum solutions comprising in 20 mM histidine acetate pH 5.5 were prepared as described above and filled into 20 mL type I borosilicate glass vials (Schott, Mainz, DE). Samples containing either 0 or 250 ppb of aluminum (Al^3) were spiked with different PS stock solutions (HP PS20, SR PS20, HP PS80, SR PS80, POA PS80; degradation level of 0 or 10%). In addition, samples containing 250 ppb aluminum were supplemented with 0.05 mM diethylenetriaminepentaacetic acid (DTPA) prior spiking with partially degraded PS. Vials were sealed with 20 mm teflonized injection stoppers (D777-1, Daikyo) and aluminum crimp caps and homogenized on a MaxQTM 4000 Benchtop Orbital Shaker (Thermo ScientificTM, Waltham, Mass., USA) for 1 hour at 25° C. […] Different grades of non-degraded polysorbate 20 and 80 served as negative controls. All samples were prepared in triplicates. Samples were stored at 5° C. and particle formation was assessed for up to 22 days by visual inspection using a black/white panel according Ph. Eur. 2.9.20. and enhanced visual inspection ([…] instrument) as described above.

Data set [7] is described as follows: Spiking study with different PS20 and PS80 grades, aluminum and DTPA, visible particles by Seidenader (Table 11). As to conditions: DTPA, 250 ppb aluminum, independent of PS grade or enzyme. As to the method: as §1
Data set [8] is described as follows: FFA metal nucleation by DLS in presence of DTPA, Fe nucleation study. As for the experimental part:
(§2) DLS experiments were performed on DynaPro(R) plate reader (Wyatt, Santa Barbara, Calif.). The DLS plate reader is flushed with nitrogen 5 hours before commencing the measurements and cooled down to 5° C. during the entire duration of the measurements. 200 μL of sample solutions comprising of 20 μg lauric acid (LA) in 20 mM L-Histidine buffer at pH 6.0 supplemented with 6% v/v DMSO, and varying amounts of metal ions (Al^3+, Fe^3, Zn^2+, Mg^2+, Ca^2+, Ni^2+) were mixed in the cuvettes of black glass bottom 96 well plates (Greiner Bio-One GmbH, Frickenhausen, Germany). FFA nucleation and particle growth were measured over 40-70 hours using a 633 nm laser and a backscatter detection system at 158°. The hydrodynamic particle radius (rH) was determined by fitting a cumulant fit to the obtained auto-correlation function. The lower and upper boundary for the cumulant fit was set to lag times τ of 10 μs and 1000 μs respectively. The laser power was adjusted before each measurement sequence and kept constant during the entire measurement. The attenuation level was set to zero for all measurements in order to collect the maximum amount of scattered light.
For the Al nucleation study, a metal ion target concentration of 2 μM was used. […] For the Fe nucleation study, the target concentration of Fe was 4 μM. The final concentration of DTPA was either 0, 0.04, 0.4, 2.0, 4.0 or 40 μM resulting in molar ratios (DTPA:Fe) of 0, 0.01, 0.1, 0.5, 1.0 and 10, respectively. DLS measurements were conducted over 50 hours at 5° C. as described above.

Data set [9] in a line: FFA metal nucleation by DLS in presence of DTPA and real glass leachables. To be noted: lauric acid and real glass leachables. As to the method: as §2
Representative glass leachables solutions were prepared according to a procedure disclosed in Allmendinger et al. (Allmendinger et al. 2021). […]

Read-outs that look alike come from different tables or passages of the source.

For the compound `CCCCCCCCCCCC(=O)O` [lauric acid], the solubility at 28 days in data set [1] (20 mM histidine acetate buffer with 0.04% PS20, 5 °C, aqueous with cosolvent or surfactant or cyclodextrin, lauric and myristic acid together, histidine acetate buffer pH 5.5, 0.04% PS20, 2-8° C., 28 days, Seidenader and E/P box, read-out: Solubility limit (concentration at which free fatty acids exceeded the solubility limit)) is < 12.5 µg/mL.

`[Mg+2]` [Mg]: the “FFA salt particle formation and growth (DLS)” value in [2] is “did not lead to FFA salt particle formation or growth”.

For `CCCCCCCCCCCCCC(=O)O` [myristic acid], the solubility at 28 days in data set [1] (5 °C, pH 5.5, aqueous with cosolvent or surfactant or cyclodextrin) was < 5 µg/mL.

On to `[Al+3]` [Al], for which the “Trace amount of aluminum sufficient to complex free fatty acids and form visible particles” value in [3] turned out to be 10 ppb. For the same compound, the “Inflection point of the sigmoidal curve fit of scattering intensity” value in data set [4] is “around 65 hours”. The “FFA salt particle formation and growth (DLS)” value in data set [2] was “particle formation and growth”.

On to `[Ni+2]` [Ni], for which the “FFA salt particle formation and growth (DLS)” value in [2] is “did not lead to FFA salt particle formation or growth”.

In the case of `O=C(O)CN(CCN(CC(=O)O)CC(=O)O)CCN(CC(=O)O)CC(=O)O` [DTPA, Diethylenetriaminepentaacetic acid], in [5], the “Formation of visible FFA particles on addition of chelator” value is recorded as “successfully prevented”. Further, the “Visible particles in presence of the chelator” value in data set [6] was “no particles were observed”. Moreover, the “Particle formation in presence of the chelator” value in [7] is “significantly mitigated”. Also, in data set [8] (DTPA to Fe ratio of 0.5), the Particle radius entry was “only slightly changed” and the Scattering intensity result is recorded as “significantly decreased”. Further, the “Particle formation and growth (DLS)” value in data set [8] (equimolar amounts of DTPA, lauric acid and 4 μM Fe) is “complete suppression”. Also, the “Molar ratio of chelator to Al efficient in mitigating particle formation” value in [9] is on record as “at least 1.5”.

In the case of `[Ca+2]` [Ca], the “FFA salt particle formation and growth (DLS)” value in data set [2] is “did not lead to FFA salt particle formation or growth”.

Take `[Zn+2]` [Zn]: the “FFA salt particle formation and growth (DLS)” value in data set [2] was “did not lead to FFA salt particle formation or growth”.

With `[Fe+3]` [Fe], in [2] (instant particle formation, no further increase over time), the “Hydrodynamic particle radius rH” value was 50-60 nm. For the same compound, in data set [2], the “FFA salt particle formation and growth (DLS)” value is “particle formation and growth”.

Source of the values: patent US20230233684A1, “USE OF CHELATORS FOR THE PREVENTION OF VISIBLE PARTICLE FORMATION IN PARENTERAL PROTEIN SOLUTIONS” (Hoffmann-La Roche Inc., priority 2020, published 2023).
